The subject of test [1] is Mus musculus. Kind of test: Analgesic activity in the mouse acetic acid writhing test following s.c. administration. In kind it is functional. The settings on record: sc.
Test [2] deals with Mus musculus. In words: Compound was evaluated for its analgesic activity by mouse acetic acid writhing test after subcutaneous administration at a dose 10 mg/kg; Ia= inactive. More on the design: dose 10 mg/kg. In kind it is functional, organism-based.
Test [3] concerns Rattus norvegicus. In words: Compound was evaluated for its analgesic activity by Rat-tail-flick test after subcutaneous administration at a dose 10 mg/kg; Ia= inactive. The arrangement: dose 10 mg/kg. Type of test: functional, organism-based.
Test [4] has as its system Rattus norvegicus. Kind of test: Compound was evaluated for its analgesic activity by Rat-tail-flick test after subcutaneous administration. In kind it is functional. To be noted: for ED50: sc.
Test [5] deals with Mus musculus. In words: Compound was evaluated for its analgesic activity by mouse acetic acid writhing test after subcutaneous administration at a dose 10 mg/kg. The settings on record: sc. Type of test: functional.

Molecules are shown by their SMILES. Calls of active or inactive are those of the source. The calls are words filed in the database; no cut-off is given here. A value given as a limit tells only on which side of the number the result lay.

For the compound `CCCCC(=O)C1=CCC23CCN(C)C(Cc4ccc(OC)cc42)[C@H]3C1.Cl` (stereo partly drawn), the ED50 in the test on Mus musculus [1] came out at 0.82 mg/kg. For `COc1ccc2c3c1OC1C(=O)/C(=C/N(C)C)CC4C(C2)N(C)CCC314` (stereo not drawn), the ED50 result in the test on Mus musculus [2] and in the test with Rattus norvegicus [3] was “inactive” throughout. For the compound `COc1ccc2c3c1OC1C=C(C=O)CC4C(C2)N(C)CCC314` (stereo not drawn), the 50% effective dose (ED50) in the test on Mus musculus [1] was determined as 1.45 mg/kg. Further, in the test on Rattus norvegicus [3], the ED50 result is “inactive”. `COc1ccc2c(c1)C13CCN(C)C(C2)[C@H]1CCC(=O)C3` (stereo partly drawn): the 50% effective dose (ED50) with Rattus norvegicus [4] turned out to be 0.66 mg/kg; in the test with Mus musculus [1] it was 0.49 mg/kg. In the test on Rattus norvegicus [4], `COc1ccc2c(c1)C13CCN(C)C(C2)C1CCC(=O)C3` (stereo not drawn) showed a median effective dose (ED50) of more than 20 mg/kg. Regarding `COc1ccc2c3c1OC1C=C(C=O)CC4(O)C(C2)N(C)CCC314` (stereo not drawn), the ED50 with Mus musculus [1] was determined as 3.6 mg/kg. As to `COc1ccc2c3c1OC1C=C(C(C)=O)CC4C(C2)N(C)CCC314` (stereo not drawn), the ED50 entry with Mus musculus [2] and in the test with Rattus norvegicus [3] was “inactive” each time. Regarding `CCCC[C@@H](O)C1=CCC23CCN(C)C(Cc4ccc(OC)cc42)[C@H]3C1` (stereo partly drawn), the 50% effective dose (ED50) in the test with Rattus norvegicus [4] came to 1.8 mg/kg; in the test on Mus musculus [1], 0.0062 mg/kg. On to `CN1CC[C@]23c4c5ccc(O)c4O[C@H]2C(=O)CC[C@H]3[C@H]1C5.Cl` [HYDROMORPHONE HYDROCHLORIDE], for which the median effective dose (ED50) in the test with Mus musculus [1] was determined as 0.08 mg/kg. In the case of `COc1ccc2c3c1OC1C=C(C(C)O)CC4C(C2)N(C)CCC314` (stereo not drawn), the ED50 entry in the test with Mus musculus [2] and in the test on Rattus norvegicus [3] was “inactive” each time. In turn, `COc1ccc2c3c1OC1C=C([C@@H](O)CCCc4ccccc4)CC4C(C2)N(C)CCC314` (stereo partly drawn) yielded a 50% effective dose (ED50) with Mus musculus [1] of 1.6 mg/kg.

Turning to `COc1ccc2c(c1)C13CC=C(C=O)C[C@@H]1C(C2)N(C)CC3` (stereo partly drawn) [listing 1 of 2 here], in the test with Mus musculus [1], the 50% effect level (ED50) was put at a dose of 0.28 mg/kg.

Take `COc1ccc2c3c1OC1C=C([C@H](O)CCCc4ccccc4)CC4C(C2)N(C)CCC314` (stereo partly drawn): the ED50 in the test on Mus musculus [1] is 0.72 mg/kg. In the test with Mus musculus [1], `COc1ccc2c3c1O[C@H]1C(=O)CC[C@@]4(O)[C@@H](C2)N(C)CC[C@]314.Cl` [OXYCODONE HYDROCHLORIDE] displayed an ED50 of 0.3 mg/kg.

Take `CCCCNCC1=CC2Oc3c(OC)ccc4c3C23CCN(C)C(C4)C3C1` (stereo not drawn): the ED50 entry in the test with Mus musculus [2] is “inactive”. `CN1CC[C@]23c4c5ccc(O)c4O[C@H]2[C@@H](O)C=C[C@H]3[C@H]1C5.CN1CC[C@]23c4c5ccc(O)c4O[C@H]2[C@@H](O)C=C[C@H]3[C@H]1C5.O=S(=O)(O)O`: the 50% effective dose (ED50) turned out to be 7.32 mg/kg with Rattus norvegicus [4] and 0.79 mg/kg in the test with Mus musculus [1]. With `CCCCC(O)C1=CCC23CCN(C)C(Cc4ccc(OC)cc42)[C@@H]3C1` (stereo partly drawn), the ED50 entry in the test on Mus musculus [2] was “inactive”.

In the test with Mus musculus [5], `COc1ccc2c(c1)C13CC=C(C=O)C[C@@H]1C(C2)N(C)CC3.Cl` (stereo partly drawn) gave a 50% effective dose (ED50) of 4.55 mg/kg. On to `CCCCC(O)C1=CCC23CCN(CC4CC4)C(Cc4ccc(OC)cc42)[C@H]3C1` (stereo partly drawn), for which the 50% effective dose (ED50) in the test with Mus musculus [1] is 0.21 mg/kg. Turning to `CCCC[C@H](O)C1=CCC23CCN(C)C(Cc4ccc(OC)cc42)[C@H]3C1` (stereo partly drawn), the results for the ED50 in the test on Rattus norvegicus [4] and in the test with Mus musculus [1] were 0.3 mg/kg and 0.0058 mg/kg, respectively.

For the compound `CCCCC(C)(O)C1=CCC23CCN(C)C(Cc4ccc(OC)cc42)C3C1` (stereo not drawn), the ED50 result in the test on Mus musculus [2] and with Rattus norvegicus [3] was “inactive” throughout. In the test with Mus musculus [1], `COc1ccc2c3c1O[C@H]1C(=O)CC[C@H]4[C@@H](C2)N(C)CC[C@]314.O=C(O)C(O)C(O)C(=O)O` displayed an ED50 of 1.06 mg/kg. In the case of `CC(=O)C1=CCC23CCN(C)C(Cc4ccc(O)cc42)C3C1` (stereo not drawn), the ED50 with Rattus norvegicus [4] and with Mus musculus [1] was more than 10 mg/kg throughout. `COc1ccc2c(c1)C13CCN(CC4CC4)C(C2)[C@H]1CCC(=O)C3` (stereo partly drawn): the AD50 with Rattus norvegicus [4] was 1.3 mg/kg. In the test with Mus musculus [1], this compound had a 50% effective dose (ED50) of more than 10 mg/kg. For `CCCCC(C)(O)C1=CCC23CCN(C)C(Cc4ccc(O)cc42)C3C1` (stereo not drawn), the ED50 result with Mus musculus [2] is “inactive”. `CCCCC(=O)C1=CCC23CCN(C)C(Cc4ccc(O)cc42)[C@H]3C1` (stereo partly drawn): the figures for the 50% effective dose (ED50) with Rattus norvegicus [4] and in the test on Mus musculus [1] were 0.0135 mg/kg and 0.046 mg/kg, respectively. As to `CCCCC(C)(O)C1=CCC23CCN(C)C(Cc4ccc(OC)cc42)[C@H]3C1` (stereo partly drawn), the ED50 in the test with Rattus norvegicus [4] is 3.2 mg/kg; with Mus musculus [1] it was 0.0125 mg/kg. In the same order, the values of `CCCCS/C=C1\CC2C3Cc4ccc(OC)c5c4C2(CCN3C)C(O5)C1=O` (stereo not drawn) are more than 10 mg/kg and more than 10 mg/kg. For `CCCCC(O)C1=CC2Oc3c(OC)ccc4c3C23CCN(C)C(C4)C3(O)C1.Cl` (stereo not drawn), in the test with Mus musculus [1], the 50% effect level (ED50) was put at a dose of 9.8 mg/kg.

On to `CCCCC(=O)C1=CC2Oc3c(OC)ccc4c3C23CCN(C)C(C4)C3C1.Cl` (stereo not drawn), for which the ED50 in the test on Rattus norvegicus [4] is more than 10 mg/kg. Besides, the ED50 result in the test with Mus musculus [2] was “inactive”. Compound `CCCCC(O)C1=CC2Oc3c(OC)ccc4c3C23CCN(C)C(C4)C3C1` (stereo not drawn) yielded an ED50 with Mus musculus [1] of 3.13 mg/kg. In addition, the ED50 result with Rattus norvegicus [3] is “inactive”.

`COc1ccc2c(c1)C13CC=C(C=O)C[C@@H]1C(C2)N(C)CC3` (stereo partly drawn) [listing 2 of 2 here]: the ED50 result in the test on Rattus norvegicus [3] was “inactive”.

The values are drawn from ChEMBL document CHEMBL1122790, “Novel opiates and antagonists. 6. 7-Alkyl-6,7-didehydromorphinans” (1984).
